Legend:
[1] = tested on: human melanoma cells lacking INK4a/ARF (WM2664); experiment: Cell cycle analysis (BrdU and propidium iodide, flow cytometry); assay type: cell-based; conditions: WM2664 (CDK4/6-dependent), 24 hours treatment
Description: (§1) Cells were cultured in DMEM+10% FBS.
(§2) Cell cycle analysis: Cell cycle analysis was performed using BrdU and propidium iodide (both from BD Biosciences Pharmigen, San Jose, Calif., United States of America) following the manufacturer's protocol. Cells were treated for 24 hours with a test compound at a desired dose prior to 15 minutes BrdU pulse, cell harvesting, fixation, staining, and analysis by flow cytometry.
(§3) Histograms of dose-response curves of PD332991 and 2BrIC in HS68, WM2664 and A2058 cells were analyzed using Mod-Fit™ software from Verity Software House (Topsham, Me., United States of America).

[2] = tested on: telomerized human diploid fibroblast (tHDF) cells (HS68); experiment: as above; assay type: cell-based; conditions: HS68 (CDK4/6-dependent), 24 hours treatment
Description: as §1, §2, §3

[3] = tested on: human RB-null melanoma cells (A2058); experiment: γH2AX assay (DNA damage, flow cytometry); assay type: cell-based; conditions: 16 hours pretreatment, then 8 hours Carbo, Etop or Dox
Excerpt: (§4) Reduction in DNA damage effected by the test compound or maintenance of cell viability effected by the test compound in cells treated with cytotoxic compounds can be assessed in any suitable manner. For example, DNA damage in cell populations can be assessed by performing a gamma-H2AX assay as described further herein below. Mammalian cells respond to agents that introduce DNA double-stranded breaks with the immediate and substantial phosphorylation of histone H2AX. Thus, detection of the phosphorylated H2AX, termed gamma-H2AX (γH2AX), using commercially available antibodies, can serve as a measure of DNA damage in cells.
as §1
(§5) γH2AX assay: For γH2AX assay, cells were treated with a dose response of PD332991 or 2BrIC for 24 hours. Cells were fixed, permeabilized, and stained with anti-γH2AX antibody as per γH2AX Flow Kit (Millipore, Billerica, Mass., United States of America). γH2AX levels were assessed by flow cytometry.

[4] = tested on: human melanoma cells lacking INK4a/ARF (WM2664); experiment: γH2AX assay (DNA damage, flow cytometry); assay type: cell-based; conditions: 16 hours pretreatment
Excerpt: as §4, §1, §5

[5] = tested on: telomerized human diploid fibroblast (tHDF) cells (HS68); experiment: γH2AX assay (DNA damage, flow cytometry); assay type: cell-based; conditions: 16 hours pretreatment, then 8 hours Carbo, Etop or Dox
Excerpt: as §4, §1, §5

[6] = tested on: hematopoietic stem and progenitor cells (HSPC); experiment: In vivo pharmacodynamic assay (BrdU incorporation, Ki67) in bone marrow; set-up: species or system mice
Description: PD0332991: For HSPC proliferation experiments, mice received daily oral gavage with PD0332991 150 mg/kg for 2 days with 1 mg BrdU intraperitoneal injection (i.p.) every 6 hours for 24 hours prior to sacrifice.
2BrIC: For HSPC proliferation experiments, mice were treated with two doses of 2-bromo-12,13-dihydro-5H-indolo[2,3-a]pyrrolo[3,4-c]carbazole-5,7(6H)-dione (2BrIC) 300 mg/kg oral gavage or vehicle control. 2BrIC was solubilized for oral gavage using formulation #6 from the Hot Rod formulation kit (Pharmatek, Inc., San Diego, Calif., United States of America). 2BrIC was administered 2 hours prior to BrdU administration and readministered at the time of the BrdU 1 mg i.p. injection. After BrdU+/−2BrIC treatment for the indicated times, the mice were sacrificed and bone marrow harvested for immunophenotyping, and BrdU analysis.
Bone marrow (BM) was harvested from femurs of mice, pooled, and centrifuged to purify bone marrow mononuclear cells (BM-MNCs). Cells were then incubated for 5 minutes in ACK buffer to lyse red blood cells. All antibodies were from BD Pharmingen (San Jose, Calif., United States of America) unless otherwise indicated. Purified BM-MNCs were incubated with mouse lineage mixture biotin conjugated antibody, followed by streptavidin-FITC. Cells were then stained with Sca-1-PE-Cy7 and c-kit-APC-alexa750 antibodies. Cell viability was assessed using LIVE/DEAD Aqua Dead Cell Stain Kit (Invitrogen Corporation, Carlsbad, Calif., United States of America). For BrdU incorporation assay, the cells were fixed, permeablized, and stained with an APC BrdU Flow Kit according to the manufacturer's instruction. In all experiments, PE-Cy7, FITC, APC-alexa750, and the Aqua Dead cell stain isotype controls were included as appropriate. Flow cytometric analysis was performed using a CyAn ADP (Dako, Glostrup, Denmark). For each sample, a minimum of 500,000 cells was analyzed and the data were analyzed using FlowJo software (Tree Star, Ashland, Oreg., United States of America).

[7] = tested on: mice exposed to chemotherapeutic agents; experiment: Myelosuppression assay: weekly complete blood counts; assay type: in vivo; conditions: for protection of blood cell counts (platelets, hemoglobin, lymphocytes, granulocytes) from doxorubicin: 150 mg/kg oral gavage 1 hour before DOX 10 mg/kg i.p., repeated after 7 days, blood at fourteen days; for protection of blood cell counts (platelets, hemoglobin, lymphocytes, granulocytes) from carboplatin: 150 mg/kg oral gavage one hour before Carbo 100 mg/kg i.p., blood at seven day intervals
Description: PD0332991: In the carboplatin experiments, mice were treated with a single dose of PD0332991 150 mg/kg oral gavage or vehicle control followed by carboplatin 100 mg/kg IP injection. In the doxorubicin experiments, mice were treated with a PD0332991 150 mg/kg by oral gavage or vehicle control one hour before doxorubicin 10 mg/kg by IP injection on day 0 and then repeated on day 7.
2BrIC: Mice were treated with a single dose of carboplatin 100 mg/kg by IP injection and two doses of 2BrIC 150mg/kg oral gavage or vehicle control. Mice were pretreated with 2BrIC two hours prior to carboplatin administration and then readministered a second dose of 2BrIC at the time of the carboplatin injection.
Baseline complete blood count (CBC) analysis were performed on a subset of mice prior to drug administration. Following drug administration (chemotherapy+/−indicated CDK4/6 inhibitor or control), mice were monitored weekly for the presence of myelosuppression by CBC analysis. CBC analysis was performed using BD Microtainer tubes with K2E (K2EDTA), 40 μL of blood was collected by tail vein nick. Blood was analyzed using a HESKA CBC-Diff Veterinary Hematology System. CBC analysis included measurement of white blood cells, lymphocytes, granulocytes, monocytes, hematocrit, red blood cells, hemoglobin, platelets, and other common hematological parameters.

[8] = tested on: tumor bearing mice; conditions: serially treated; cited from earlier work
[9] = tested on: human patients with malignancies; conditions: serially treated; cited from earlier work
[10] = tested on: human melanoma cells lacking INK4a/ARF (WM2664); experiment: Cell proliferation assay (WST-1 or CellTiter-Glo) after chemotherapeutic; conditions: WM2664 (CDK4/6-dependent); pretreatment prior to carboplatin, etoposide or doxorubicin
Description: (§6) In some embodiments, cell viability is assessed by performing a assay using 2-(4-iodophenyl)-3-(4-nitrophenyl)-5-(2,4-disulfophenyl)-2H-tetrazolium monosodium salt (WST-1), such as described further hereinbelow. In the WST-1 assay, WST-1 is cleaved by a mitochondrial reductase present in viable cells to form a colored product (i.e., formazan) that can be detected by measuring absorbance at a particular wavelength (e.g., 420-480 nm). […] The CellTiter-Glo® assay (CTG assay; Promega, Madison, Wis., United States of America) measures cell viability by measuring ATP concentration in cell lysate.
(§7) Cell lines: Telomerized human diploid fibroblast (tHDF) cells (HS68) were cultured in Dulbecco's Modified Eagle Medium (DMEM) +10% fetal bovine serum (FBS) with any additional compounds. The same conditions were used for A2058 and WM2664, human melanoma cell lines with known RB-pathway mutations: A2058 is RB-null, whereas WM2664 lacks INK4a/ARF. Thus, A2058 cells are CDK4/6-independent, while WM2664 cells are CDK4/6-dependent. Cells were cultured in DMEM+10% FBS.
(§8) Cell proliferation assays: Cell proliferation assays were performed by seeding 1×10^3 cells per well in a 96-well tissue culture plate in 100 μL of growth medium. Cells were treated as indicated with compound from Table 1 and doxorubicin, etoposide or carboplatin. Following treatment, cells were allowed to recover for 7 days in normal growth medium. At the end of the recovery period, cell number was quantified using the VVST-1 cell proliferation assay (TaKaRa Bio USA, Madison, Wis., United States of America) or the CellTiter-Glo® assay (CTG; Promega, Madison, Wis., United States of America). Data is presented as absorbance at 450 nm for the WST assays or Relative Light Units (RLU) for the CTG assays.

[11] = tested on: telomerized human diploid fibroblast (tHDF) cells (HS68); experiment: as above; conditions: HS68 (CDK4/6-dependent); pretreatment prior to carboplatin, etoposide or doxorubicin
Description: as §6, §7, §8

[12] = tested on: human RB-null melanoma cells (A2058); experiment: as above; conditions: A2058 (CDK4/6-independent); pretreatment prior to carboplatin, etoposide or doxorubicin
Description: as §6, §7, §8

SMILES: CC(=O)c1c(C)c2cnc(Nc3ccc(N4CCNCC4)cn3)nc2n(C2CCCC2)c1=O [PD0332991, 6-acetyl-8-cyclopentyl-5-methyl-2-(5-piperazin-1-yl-pyridin-2-ylamino)-8H-pyrido-[2,3-d]-pyrimidin-7-one]
- cell cycle effect [1]: strong, clean and reversible G1-arrest
- cell cycle effect [2]: strong, clean and reversible G1-arrest
- protection from doxorubicin-, carboplatin- or etoposide-induced DNA damage (gamma-H2AX) [3]: inability
- protection from doxorubicin-, carboplatin- or etoposide-induced DNA damage (gamma-H2AX) ([4]; then 8 hours Carbo, Etop or Dox): attenuated γH2AX staining
- protection from carboplatin-induced DNA damage (gamma-H2AX positive cells) ([4]; then 8 hours carboplatin): ability
- protection from doxorubicin-induced DNA damage (gamma-H2AX positive cells) ([4]; then 8 hours doxorubicin): ability
- protection from etoposide-induced DNA damage (gamma-H2AX positive cells) ([4]; then 8 hours etoposide): ability
- protection from doxorubicin-, carboplatin- or etoposide-induced DNA damage (gamma-H2AX) [5]: attenuated γH2AX staining
- protection from doxorubicin-, carboplatin- or etoposide-induced DNA damage (gamma-H2AX) ([5]; listed as PD 0332991): ability
- proliferation of granulocyte-monocyte progenitors (GMP) and megakaryocyte-erythroid progenitors (MEP) ([6]; 150 mg/kg daily oral gavage, 48 hours): weaker effects
- proliferation in early HSPC populations (BrdU incorporation and Ki67 expression) ([6]; 48 hours treatment, 24 hour exposure to BrdU): clearly reduces proliferation
- frequency of HSC doubly positive for expression of Ki67 and BrdU ([6]; HSC (Lin−Kit+Sca1+CD48−CD150+), 150 mg/kg daily oral gavage, 48 hours, C57BII/6 mice): significantly decreased
- proliferation of oligopotent progenitors (Ki67, BrdU) ([6]; Lin−Kit+Sca1−, 150 mg/kg daily oral gavage, 48 hours): modest inhibition of proliferation
- proliferation of multipotent progenitor cell compartment (Ki67, BrdU) ([6]; MPP (Lin−Kit+Sca1+CD48−CD150−), 150 mg/kg daily oral gavage, 48 hours): more pronounced inhibition of proliferation
- proliferation of Lin−Kit−Sca1− and Lin+ cells ([6]; more fully differentiated cells, 150 mg/kg daily oral gavage, 48 hours): no change in proliferation
- protection of blood cell counts (platelets, hemoglobin, lymphocytes, granulocytes) from doxorubicin [7]: provides quadrilineage protection
- protection of blood cell counts (platelets, hemoglobin, lymphocytes, granulocytes) from doxorubicin ([7]; listed as PD332991): protected
- protection of blood cell counts (platelets, hemoglobin, lymphocytes, granulocytes) from carboplatin [7]: provides quadrilineage protection
- protection of blood cell counts (platelets, hemoglobin, lymphocytes, granulocytes) from carboplatin ([7]; listed as PD332991): protected
- erythroid, platelet and myeloid (monocyte+granulocyte) lineages upon administration [8]: decrease
- erythroid, platelet and myeloid (monocyte+granulocyte) lineages upon administration [9]: decrease
- protection from chemotherapy-induced cytotoxicity (cell proliferation assays) [10]: significant protection
- protection from chemotherapy-induced cytotoxicity (cell proliferation assays) [11]: significant protection
- protection from chemotherapy-induced cytotoxicity (cell proliferation assays) [12]: not

— patent US20150111896A1, “HEMATOPOIETIC PROTECTION AGAINST CHEMOTHERAPEUTIC COMPOUNDS USING SELECTIVE CYCLIN-DEPENDENT KINASE 4/6 INHIBITORS” (The University of North Carolina at Chapel Hill, priority 2008, published 2015)
